Consider four compounds from US20240408085A1, “COMPOUND FOR DEGRADATION OF BCL-2 FAMILY PROTEINS AND MEDICAL APPLICATION THEREOF” (XIZANG HAISCO PHARMACEUTICAL CO., LTD., priority 2021, published 2024).

SMILES strings stand for the structures.

In this assay the test system is MOLT-4 cells. The assay is described as follows: Cell proliferation activity in MOLT-4 cells (72 h, cell viability luminescence). It is filed as cell-based, human. The following applies: Homo sapiens, read-out: IC50 for the inhibition of MOLT-4 cell proliferation. The method, then: MOLT-4 cells are acute lymphoblastic leukemia cell lines in humans. The cells were purchased from ATCC. Culture conditions: RPMI-1640+10% FBS+1% penicillin-streptomycin solution. The cells were cultured in a 37° C., 5% CO2 incubator. The cells were plated in a 96-well plate, with 5×10^3 cells/well. After plating, compounds at different concentrations were added and cultured in a 37° C., 5% CO2 incubator for 72 h. After the completion of culture, a reagent (Promega, G7573) for detecting the cell viability was added. The mixture was uniformly mixed for 2 minutes and then incubated at room temperature for 10 minutes. The luminescence signal was detected with a multimode plate reader (BMG, PHERAstar FSX). The luminescence readings were processed using GraphPad Prism 8.0 software and the IC50 values of the compounds for the inhibition of cell proliferation and the maximum inhibition rate were calculated according to formula (2) and formula (3), respectively, wherein Tadministration denotes the cell signal readings obtained after incubation with the compounds for 72 h, and Tvehicle denotes the cell signal readings obtained after incubation with the vehicle control for 72 h.
Calculation of Max inhibition %: after the processing according to formula (2), the inhibition rate of the compounds at the highest concentration was calculated.
With `Cc1ncsc1-c1ccc([C@H](C)NC(=O)[C@@H]2C[C@@H](O)CN2C(=O)[C@@H](NC(=O)CCCCCC(=O)N2C[C@]3(C)CN(CC[C@H](CSc4ccccc4)Nc4ccc(S(=O)(=O)NC(=O)c5ccc(N6CCN(CC7=C(c8ccc(Cl)cc8)CCC(C)(C)C7)CC6)cc5)cc4S(=O)(=O)C(F)(F)F)C[C@]3(C)C2)C(C)(C)C)cc1` [Compound 26, cis-(2S,4R)-1-((S)-2-(7-(5-((R)-3-((4-(N-(4-(4-((4′-chloro-4,4-dimethyl-3,4,5,6-tetrahydro-[1,1′-biphenyl]-2-yl)methyl)piperazin-1-yl)benzoyl)sulfamoyl)-2-((trifluoromethyl)sulfonyl)phenyl)amino)-4-(phenylthio)butyl)-3a,6a-dimethylhexahydropyrrolo[3,4-c]pyrrol-2(1H)-yl)-7-oxoheptanamido)-3,3-dimethylbutanoyl)-4-hydroxy-N—((S)-1-(4-(4-methylthiazol-5-yl)phenyl)ethyl)pyrrolidine-2-carboxamide], the IC50 is less than 500 nM.

Turning to `Cc1ncsc1-c1ccc([C@H](C)NC(=O)[C@@H]2C[C@@H](O)CN2C(=O)[C@@H](NC(=O)CCCCCCC(=O)N2C[C@@H]3C[C@H]2CN3CC[C@H](CSc2ccccc2)Nc2ccc(S(=O)(=O)NC(=O)c3ccc(N4CCN(CC5=C(c6ccc(Cl)cc6F)CCC6(CC6)C5)CC4)cc3)cc2S(=O)(=O)C(F)(F)F)C(C)(C)C)cc1` [Compound 30, (2S,4R)-1-((S)-2-(8-((1S,4S)-5-((R)-3-((4-(N-(4-(4-((6-(4-chloro-2-fluorophenyl)spiro[2.5]oct-5-en-5-yl)methyl)piperazin-1-yl)benzoyl)sulfamoyl)-2-((trifluoromethyl)sulfonyl)phenyl)amino)-4-(phenylthio)butyl)-2,5-diazabicyclo[2.2.1]heptan-2-yl)-8-oxooctanamido)-3,3-dimethylbutanoyl)-4-hydroxy-N—((S)-1-(4-(4-methylthiazol-5-yl)phenyl)ethyl)pyrrolidine-2-carboxamide], the IC50 is less than 500 nM.

Regarding `Cc1ncsc1-c1ccc([C@H](C)NC(=O)[C@@H]2C[C@@H](O)CN2C(=O)[C@@H](NC(=O)CCCCCC(=O)N2CCN(CC[C@H](CSc3ccccc3)Nc3ccc(S(=O)(=O)NC(=O)c4ccc(N5CCN(CC6=C(c7ccc(Cl)cc7)CCCCC6)CC5)cc4)cc3S(=O)(=O)C(F)(F)F)CC2)C(C)(C)C)cc1` [Trifluoroacetate of compound 6, (2S,4R)-1-((S)-2-(7-(4-((R)-3-((4-(N-(4-(4-((2-(4-chlorophenyl)cyclohept-1-en-1-yl)methyl)piperazin-1-yl)benzoyl)sulfamoyl)-2-((trifluoromethyl)sulfonyl)phenyl)amino)-4-(phenylthio)butyl)piperazin-1-yl)-7-oxoheptanamido)-3,3-dimethylbutanoyl)-4-hydroxy-N—((S)-1-(4-(4-methylthiazol-5-yl)phenyl)ethyl)pyrrolidine-2-carboxamide], the IC50 was less than 500 nM.

`Cc1ncsc1-c1ccc([C@H](C)NC(=O)[C@@H]2C[C@@H](O)CN2C(=O)[C@@H](NC(=O)CCCCCC(=O)N2CCN(CC[C@H](CSc3ccccc3)Nc3ccc(S(=O)(=O)NC(=O)c4ccc(N5CCN(CC6=C(c7ccc(Cl)cc7F)CCCCC6)CC5)cc4)cc3S(=O)(=O)C(F)(F)F)CC2)C(C)(C)C)cc1` [Compound 35, (2S,4R)-1-((S)-2-(7-(4-((R)-3-((4-(N-(4-(4-((2-(4-chloro-2-fluorophenyl)cyclohept-1-en-1-yl)methyl)piperazin-1-yl)benzoyl)sulfamoyl)-2-((trifluoromethyl)sulfonyl)phenyl)amino)-4-(phenylthio)butyl)piperazin-1-yl)-7-oxoheptanamido)-3,3-dimethylbutanoyl)-4-hydroxy-N—((S)-1-(4-(4-methylthiazol-5-yl)phenyl)ethyl)pyrrolidine-2-carboxamide]: the IC50 was less than 500 nM.
